Among the data in patent publication US10030006B2, “Coumarin based Hsp90 inhibitors with urea and ether substituents” (University of Kansas, priority 2013, dated 2018) are IC50 values, retold here.

Read-outs that look alike come from different tables or passages of the source.

Type in all cases: cell-based
Assay [1] concerns SKBr3 (estrogen receptor negative, Her2 over-expressing breast cancer cells). In words: Anti-proliferation assay (MTS/PMS, 72 h), SKBr3. Particulars: Homo sapiens, SK-BR-3, Breast Cancer, read-out: IC50 SKBr3.
Assay [2] concerns MCF-7 (estrogen receptor positive breast cancer cells). Nature of the assay: Anti-proliferation assay (MTS/PMS, 72 h), MCF-7. Particulars: Homo sapiens, MCF7, Breast Cancer, read-out: IC50 MCF-3.
In another assay the test system is HCT-116. In words: Anti-proliferation assay, HCT-116. The conditions noted are these: Homo sapiens, HCT-116. In a few lines:
(§1)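 MTS/PMS viability readout after 72 h compound exposure, with 1% DMSO-treated wells set as 100% proliferation. Cells at 2000/well, attached overnight before dosing; IC50 fitted from separate triplicate runs.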

In the next assay the test system is PC-3. Nature of the assay: Anti-proliferation assay, PC-3. Particulars: Homo sapiens, PC-3, Prostate Cancer. In a few lines: as §1
Another assay concerns A-549. Nature of the assay: Anti-proliferation assay, A-549. Particulars: Homo sapiens, A549. The gist of the method: as §1
For another assay, the system named is MDA1986. Nature of the assay: Anti-proliferation assay, MDA1986. Particulars: MDA1986, HSNCC. In a few lines: as §1
Another assay concerns JMAR. In words: Anti-proliferation assay, JMAR. The conditions noted are these: JMAR, HSNCC. The gist of the method:
as §1

Another assay relates to MDAMB231. In words: Anti-proliferation assay, MDAMB231. The conditions noted are these: Homo sapiens, MDA-MB-231, Tri-Neg. The gist of the method: as §1
Another assay has as its system DRO81-1. Nature of the assay: Anti-proliferation assay, DRO81-1. Particulars: Thyroid. The gist of the method:
as §1

The next assay concerns BCPAP. In words: Anti-proliferation assay, BCPAP. Particulars: Homo sapiens, BCPAP, Thyroid. As for the experimental part:
Cells were maintained in a 1:1 mixture of Advanced DMEM/F12 (Gibco) supplemented with non-essential amino acids, L-glutamine (2 mM), streptomycin (500 μg/mL), penicillin (100 units/mL), and 10% FBS. Cells were grown to confluence in a humidified atmosphere (37° C., 5% CO2), seeded (2000/well, 100 μL) in 96-well plates, and allowed to attach overnight. Compound at varying concentrations in DMSO (1% DMSO final concentration) was added, and cells were returned to the incubator for 72 h. At 72 h, the number of viable cells was determined using an MTS/PMS cell proliferation kit (Promega) per the manufacturer's instructions. Cells incubated in 1% DMSO were used at 100% proliferation, and values were adjusted accordingly. IC50 values were calculated from separate experiments performed in triplicate using GraphPad Prism.

The test system of the next assay is MRC5. Nature of the assay: Anti-proliferation assay, MRC5 (normal). The conditions noted are these: Homo sapiens. In a few lines:
as §1

The test system of the next assay is HMLE. Nature of the assay: Anti-proliferation assay, HMLE (normal). The conditions noted are these: HMLE. The gist of the method: as §1
Where [3] appears, read: Table 6, substituted phenyl ureas.
The mark [4] stands for this setting: MRC5, Table 6, substituted phenyl ureas.

Turning to `CCc1ccc(NC(=O)Nc2cc3ccc(OC4CCN(C)CC4)c(C)c3oc2=O)cc1` [p-CH2CH3, 1-(4-ethylphenyl)-3-(8-methyl-7-((1-methylpiperidin-4-yl)oxy)-2-oxo-2H-chromen-3-yl)urea], the IC50 in [1] (setting [3]) was 580 nM; in assay [2] (setting [3]), 560 nM; in the assay on HCT-116 (setting [3]), 530 nM; in the assay on PC-3 (setting [3]), 410 nM; in the assay with A-549 (setting [3]) it was 490 nM; in the assay with MDA1986 (setting [3]), 1400 nM. Moreover, the concentration for half-maximal inhibition (IC50) with JMAR (setting [3]) was 1030 nM; in the assay with MDAMB231 (setting [3]), 690 nM; in the assay with DRO81-1 (setting [3]) it was 290 nM; in the assay on BCPAP (setting [3]), 4360 nM; with MRC5 (setting [4]) it was 2600 nM; in the assay with HMLE (setting [3]) it was 1200 nM.
`Cc1cccc(NC(=O)Nc2cc3ccc(OC4CCN(C)CC4)c(C)c3oc2=O)c1` [m-CH3, 1-(8-methyl-7-((1-methylpiperidin-4-yl)oxy)-2-oxo-2H-chromen-3-yl)-3-(m-tolyl)urea]: the IC50 in assay [1] (setting [3]) stood at 840 nM; in [2] (setting [3]), 550 nM; with HCT-116 (setting [3]) it was 1110 nM; in the assay with PC-3 (setting [3]), 840 nM; in the assay on A-549 (setting [3]), 1210 nM; in the assay with MDA1986 (setting [3]), 2020 nM. Besides, the IC50 in the assay on JMAR (setting [3]) worked out at 1800 nM; in the assay on MDAMB231 (setting [3]), 3500 nM; in the assay on DRO81-1 (setting [3]) it was 540 nM; in the assay on BCPAP (setting [3]) it was 3540 nM; in the assay on MRC5 (setting [4]) it was 4300 nM; in the assay with HMLE (setting [3]) it was 3100 nM.
Consider `CC(=O)Oc1cccc(NC(=O)Nc2cc3ccc(OC4CCN(C)CC4)c(C)c3oc2=O)c1` [m-OAc, 3-(3-(8-methyl-7-((1-methylpiperidin-4-yl)oxy)-2-oxo-2H-chromen-3-yl)ureido)phenyl acetate], for which the IC50 in [1] (setting [3]) is 2370 nM; in assay [2] (setting [3]), 1410 nM; in the assay on HCT-116 (setting [3]) it was 12100 nM; in the assay on PC-3 (setting [3]), 1910 nM; in the assay on A-549 (setting [3]), 1910 nM; in the assay on MDA1986 (setting [3]), 6820 nM. For the same compound, the IC50 is 3850 nM in the assay with JMAR (setting [3]); 4100 nM in the assay on MDAMB231 (setting [3]); 2700 nM in the assay with DRO81-1 (setting [3]); 2820 nM with BCPAP (setting [3]); over 25000 nM with MRC5 (setting [4]); 13600 nM in the assay on HMLE (setting [3]).
Turning to `CC(=O)Oc1ccc(NC(=O)Nc2cc3ccc(OC4CCN(C)CC4)c(C)c3oc2=O)cc1` [p-OAc, 4-(3-(8-methyl-7-((1-methylpiperidin-4-yl)oxy)-2-oxo-2H-chromen-3-yl)ureido)phenyl acetate], the IC50 amounted to 1480 nM in [1] (setting [3]); 1720 nM in assay [2] (setting [3]); 2610 nM in the assay with HCT-116 (setting [3]); 1150 nM in the assay on PC-3 (setting [3]); 1510 nM with A-549 (setting [3]); 1980 nM in the assay on MDA1986 (setting [3]). Also, the IC50 in the assay with JMAR (setting [3]) turned out to be 3500 nM; in the assay with MDAMB231 (setting [3]), 850 nM; in the assay on DRO81-1 (setting [3]) it was 3700 nM; in the assay with BCPAP (setting [3]) it was 5530 nM; with MRC5 (setting [4]), 15500 nM; with HMLE (setting [3]) it was 15900 nM.
On to `COc1ccc(NC(=O)Nc2cc3ccc(OC4CCN(C)CC4)c(C)c3oc2=O)cc1-c1cccc(OC(C)=O)c1` [OMe, OAc, 2′-methoxy-5′-(3-(8-methyl-7-((1-methylpiperidin-4-yl)oxy)-2-oxo-2H-chromen-3-yl)ureido)-[1,1′-biphenyl]-3-yl acetate], for which the IC50 in assay [1] (Table 8, biphenyl ureas) was 260 nM; in assay [2] (Table 8, biphenyl ureas) it was 270 nM; with HCT-116 (Table 8, biphenyl ureas), 3390 nM; in the assay with PC-3 (Table 8, biphenyl ureas) it was 1040 nM; with A-549 (Table 8, biphenyl ureas) it was 540 nM; in the assay on MDA1986 (Table 8, biphenyl ureas) it was 850 nM. Also, the IC50 in the assay on JMAR (Table 8, biphenyl ureas) was 2200 nM; in the assay on MDAMB231 (Table 8, biphenyl ureas), 390 nM; with DRO81-1 (Table 8, biphenyl ureas), 260 nM; in the assay on BCPAP (Table 8, biphenyl ureas), 16 nM; with MRC5 (MRC5, Table 8, biphenyl ureas), 3100 nM; with HMLE (Table 8, biphenyl ureas) it was 1000 nM.
For the compound `CCc1cccc(NC(=O)Nc2cc3ccc(OC4CCN(C)CC4)c(C)c3oc2=O)c1` [m-CH2CH3, 1-(3-ethylphenyl)-3-(8-methyl-7-((1-methylpiperidin-4-yl)oxy)-2-oxo-2H-chromen-3-yl)urea], the IC50 in [1] (setting [3]) worked out at 440 nM; in assay [2] (setting [3]), 500 nM; with HCT-116 (setting [3]), 340 nM; in the assay with PC-3 (setting [3]), 410 nM; in the assay with A-549 (setting [3]) it was 400 nM; in the assay with MDA1986 (setting [3]), 1320 nM. For the same compound, the IC50 in the assay with JMAR (setting [3]) was 630 nM; with MDAMB231 (setting [3]), 1900 nM; in the assay on DRO81-1 (setting [3]), 670 nM; with BCPAP (setting [3]), 5590 nM; with MRC5 (setting [4]), 5300 nM; with HMLE (setting [3]) it was over 25000 nM.
For `Cc1c(OC2CCN(C)CC2)ccc2cc(NC(=O)Nc3ccc(OC(F)(F)F)cc3)c(=O)oc12` [p-OCF3, 1-(8-methyl-7-((1-methylpiperidin-4-yl)oxy)-2-oxo-2H-chromen-3-yl)-3-(4-(trifluoromethoxy)phenyl)urea], the IC50 in assay [1] (setting [3]) worked out at 410 nM; in assay [2] (setting [3]), 400 nM; in the assay with HCT-116 (setting [3]) it was 270 nM; in the assay on PC-3 (setting [3]), 160 nM; in the assay with A-549 (setting [3]), 310 nM; in the assay on MDA1986 (setting [3]), 870 nM. In addition, the IC50 came out at 3600 nM in the assay with JMAR (setting [3]); 690 nM in the assay with MDAMB231 (setting [3]); 230 nM with DRO81-1 (setting [3]); 870 nM with BCPAP (setting [3]); 3300 nM with MRC5 (setting [4]); 4100 nM in the assay on HMLE (setting [3]).
In the case of `COc1ccc(NC(=O)Nc2cc3ccc(OC4CCN(C)CC4)c(C)c3oc2=O)cc1-c1cccc(O)c1` [OMe, OH, 1-(3′-hydroxy-6-methoxy-[1,1′-biphenyl]-3-yl)-3-(8-methyl-7-((1-methylpiperidin-4-yl)oxy)-2-oxo-2H-chromen-3-yl)urea], the IC50 turned out to be 390 nM in assay [1] (Table 8, biphenyl ureas); 290 nM in assay [2] (Table 8, biphenyl ureas); 420 nM in the assay with HCT-116 (Table 8, biphenyl ureas); 600 nM in the assay with PC-3 (Table 8, biphenyl ureas); 410 nM with A-549 (Table 8, biphenyl ureas); 2800 nM with MDA1986 (Table 8, biphenyl ureas). For the same compound, the 50% inhibitory concentration (IC50) is 960 nM with JMAR (Table 8, biphenyl ureas); 95 nM with MDAMB231 (Table 8, biphenyl ureas); 1200 nM in the assay with DRO81-1 (Table 8, biphenyl ureas); 1940 nM in the assay on BCPAP (Table 8, biphenyl ureas); 9800 nM in the assay with MRC5 (MRC5, Table 8, biphenyl ureas); 3700 nM with HMLE (Table 8, biphenyl ureas).
In the case of `Cc1c(OC2CCN(C)CC2)ccc2cc(NC(=O)Nc3cccc(O)c3)c(=O)oc12` [m-OH, 1-(3-hydroxyphenyl)-3-(8-methyl-7-((1-methylpiperidin-4-yl)oxy)-2-oxo-2H-chromen-3-yl)urea], the IC50 in [1] (setting [3]) was 2370 nM; in assay [2] (setting [3]), 2730 nM; in the assay on HCT-116 (setting [3]), over 100000 nM; with PC-3 (setting [3]) it was 10900 nM; in the assay on A-549 (setting [3]), 10900 nM; with MDA1986 (setting [3]), 21900 nM. The IC50 with JMAR (setting [3]) was 6500 nM; in the assay with MDAMB231 (setting [3]), 1300 nM; in the assay on DRO81-1 (setting [3]), over 25000 nM; with BCPAP (setting [3]) it was 270 nM; with MRC5 (setting [4]) it was over 25000 nM; in the assay on HMLE (setting [3]) it was 11900 nM.
On to `COc1cccc(-c2cc(NC(=O)Nc3cc4ccc(OC5CCN(C)CC5)c(C)c4oc3=O)ccc2OC)c1` [OMe, OMe, 1-(3′,6-dimethoxy-[1,1′-biphenyl]-3-yl)-3-(8-methyl-7-((1-methylpiperidin-4-yl)oxy)-2-oxo-2H-chromen-3-yl)urea], for which the IC50 in assay [1] (Table 8, biphenyl ureas) was determined as 170 nM; in assay [2] (Table 8, biphenyl ureas), 200 nM; with HCT-116 (Table 8, biphenyl ureas) it was 460 nM; in the assay with PC-3 (Table 8, biphenyl ureas), 470 nM; in the assay with A-549 (Table 8, biphenyl ureas), 470 nM; with MDA1986 (Table 8, biphenyl ureas) it was 1390 nM. In addition, the IC50 was 500 nM with JMAR (Table 8, biphenyl ureas); 610 nM in the assay with MDAMB231 (Table 8, biphenyl ureas); 480 nM in the assay with DRO81-1 (Table 8, biphenyl ureas); 390 nM in the assay on BCPAP (Table 8, biphenyl ureas); 4300 nM in the assay with MRC5 (MRC5, Table 8, biphenyl ureas); 1600 nM with HMLE (Table 8, biphenyl ureas).

By IC50 is commonly meant the concentration that inhibits the measured activity by half.
